Source: ChEMBL document CHEMBL5096150, “Development and Therapeutic Potential of NUAKs Inhibitors” (J Med Chem, 2021)
Blank lines part the entries; values can stand above or below the molecule they belong to.

Legend:
[1] = target: T1, NUAK family SNF1-like kinase 1 (Homo sapiens) (UniProt O60285); experiment: Inhibition of NUAK1 (unknown origin) at 0.10 uM relative to control; details: dose 0.1 µM
T1 sequence (whole entry): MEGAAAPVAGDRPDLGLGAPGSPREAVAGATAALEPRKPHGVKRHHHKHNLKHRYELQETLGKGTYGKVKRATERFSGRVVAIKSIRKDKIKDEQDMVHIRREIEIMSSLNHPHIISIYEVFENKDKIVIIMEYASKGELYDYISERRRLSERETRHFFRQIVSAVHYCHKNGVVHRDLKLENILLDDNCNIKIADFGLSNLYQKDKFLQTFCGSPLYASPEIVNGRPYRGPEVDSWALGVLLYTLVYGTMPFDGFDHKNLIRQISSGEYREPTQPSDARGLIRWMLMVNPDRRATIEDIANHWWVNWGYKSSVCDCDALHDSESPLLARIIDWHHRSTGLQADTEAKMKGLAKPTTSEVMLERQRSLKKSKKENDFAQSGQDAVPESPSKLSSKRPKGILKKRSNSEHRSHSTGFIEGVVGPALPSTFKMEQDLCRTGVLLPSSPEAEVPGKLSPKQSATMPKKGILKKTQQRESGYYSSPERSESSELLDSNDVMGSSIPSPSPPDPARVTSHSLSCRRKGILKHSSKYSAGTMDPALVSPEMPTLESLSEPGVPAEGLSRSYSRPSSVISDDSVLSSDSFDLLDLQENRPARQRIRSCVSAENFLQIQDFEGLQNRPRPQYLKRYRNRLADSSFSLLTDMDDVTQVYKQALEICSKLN

[2] = target: T1, NUAK family SNF1-like kinase 1 (Homo sapiens); experiment: Inhibition of NUAK1 (unknown origin) at 1 uM relative to control
[3] = target: T1, NUAK family SNF1-like kinase 1 (Homo sapiens); experiment: Inhibition of NUAK1 (unknown origin) at 0.01 uM relative to control
[4] = target: T2, NUAK family SNF1-like kinase 1 (Homo sapiens, UniProt O60285); experiment: Inhibition of NUAK1 (unknown origin)
T2 sequence (O60285 whole entry): T1 sequence (whole entry)

[5] = target: T3, NUAK family SNF1-like kinase 2 (Homo sapiens, UniProt Q9H093); experiment: Inhibition of NUAK2 (unknown origin)
T3 sequence (Q9H093 whole entry): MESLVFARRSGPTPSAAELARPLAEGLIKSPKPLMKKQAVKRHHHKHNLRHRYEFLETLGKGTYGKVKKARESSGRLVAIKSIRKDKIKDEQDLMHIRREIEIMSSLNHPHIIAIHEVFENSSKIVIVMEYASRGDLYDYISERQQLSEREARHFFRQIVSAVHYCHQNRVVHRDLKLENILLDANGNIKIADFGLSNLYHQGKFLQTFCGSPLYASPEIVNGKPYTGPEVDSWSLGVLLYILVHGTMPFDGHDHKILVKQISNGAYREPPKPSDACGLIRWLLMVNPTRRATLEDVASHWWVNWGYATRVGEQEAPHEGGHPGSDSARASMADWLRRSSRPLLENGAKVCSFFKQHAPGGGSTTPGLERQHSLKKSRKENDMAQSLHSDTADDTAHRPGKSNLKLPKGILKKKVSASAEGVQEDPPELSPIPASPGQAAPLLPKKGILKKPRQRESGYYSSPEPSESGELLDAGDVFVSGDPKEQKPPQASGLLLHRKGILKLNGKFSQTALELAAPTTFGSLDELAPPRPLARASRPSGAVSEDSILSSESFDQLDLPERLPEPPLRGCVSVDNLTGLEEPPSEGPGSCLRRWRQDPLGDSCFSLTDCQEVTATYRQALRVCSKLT

[6] = target: T2, NUAK family SNF1-like kinase 1; experiment: Inhibition of N-terminal GST-tagged wild type human NUAK1 expressed in Escherichia coli DH5alpha incubated for 30 mins in presence of gamma-[32P]ATP by cerenkov counting analysis
Insulin receptor [7] = target: T4, Insulin receptor (Homo sapiens, UniProt P06213); experiment: Binding affinity to human InsR expressed in mouse IGF1R knockout MEF cells assessed as dissociation constant; assay type: cell-based
T4 sequence (P06213 28-758 limits assumed): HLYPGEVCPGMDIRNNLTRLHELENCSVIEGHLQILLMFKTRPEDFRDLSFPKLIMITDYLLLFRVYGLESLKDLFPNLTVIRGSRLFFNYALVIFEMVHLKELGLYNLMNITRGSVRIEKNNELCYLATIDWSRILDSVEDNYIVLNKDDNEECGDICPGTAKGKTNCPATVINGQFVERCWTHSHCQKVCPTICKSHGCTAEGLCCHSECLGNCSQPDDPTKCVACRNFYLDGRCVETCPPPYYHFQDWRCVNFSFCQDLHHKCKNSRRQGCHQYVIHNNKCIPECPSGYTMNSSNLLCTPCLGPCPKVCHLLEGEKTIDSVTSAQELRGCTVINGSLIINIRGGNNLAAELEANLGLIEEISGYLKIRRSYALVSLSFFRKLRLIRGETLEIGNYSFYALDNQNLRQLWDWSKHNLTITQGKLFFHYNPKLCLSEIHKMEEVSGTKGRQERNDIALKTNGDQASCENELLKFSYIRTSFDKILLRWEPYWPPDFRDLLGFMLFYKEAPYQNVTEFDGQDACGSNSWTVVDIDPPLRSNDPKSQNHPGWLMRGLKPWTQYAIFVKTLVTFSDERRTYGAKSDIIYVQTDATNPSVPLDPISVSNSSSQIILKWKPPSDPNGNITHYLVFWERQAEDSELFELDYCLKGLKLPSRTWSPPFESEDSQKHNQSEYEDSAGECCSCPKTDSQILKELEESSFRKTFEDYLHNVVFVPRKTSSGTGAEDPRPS
T4 sequence (P06213 763-1382 limits assumed): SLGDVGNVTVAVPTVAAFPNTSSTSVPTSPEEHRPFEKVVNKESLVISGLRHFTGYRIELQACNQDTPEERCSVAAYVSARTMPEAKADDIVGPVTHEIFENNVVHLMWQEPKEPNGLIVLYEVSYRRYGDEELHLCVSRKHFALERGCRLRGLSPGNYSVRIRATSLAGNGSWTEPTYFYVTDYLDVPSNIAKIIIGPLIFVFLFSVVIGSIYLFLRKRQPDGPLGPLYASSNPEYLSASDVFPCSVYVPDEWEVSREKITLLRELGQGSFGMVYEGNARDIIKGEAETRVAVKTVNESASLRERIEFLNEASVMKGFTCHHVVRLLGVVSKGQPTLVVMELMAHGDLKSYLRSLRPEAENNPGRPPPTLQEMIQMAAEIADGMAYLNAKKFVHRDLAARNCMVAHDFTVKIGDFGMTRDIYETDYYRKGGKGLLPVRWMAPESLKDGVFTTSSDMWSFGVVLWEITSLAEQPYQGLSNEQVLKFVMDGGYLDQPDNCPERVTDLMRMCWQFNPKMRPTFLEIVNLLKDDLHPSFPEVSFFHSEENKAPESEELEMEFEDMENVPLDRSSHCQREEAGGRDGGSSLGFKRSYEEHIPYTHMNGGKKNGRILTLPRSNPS

[8] = target: T5, Insulin-like growth factor 1 receptor (Homo sapiens, UniProt P08069); experiment: Inhibition of human IGF1R expressed in mouse IGF1R knockout MEF cells; assay type: cell-based
T5 sequence (P08069 31-736 limits assumed): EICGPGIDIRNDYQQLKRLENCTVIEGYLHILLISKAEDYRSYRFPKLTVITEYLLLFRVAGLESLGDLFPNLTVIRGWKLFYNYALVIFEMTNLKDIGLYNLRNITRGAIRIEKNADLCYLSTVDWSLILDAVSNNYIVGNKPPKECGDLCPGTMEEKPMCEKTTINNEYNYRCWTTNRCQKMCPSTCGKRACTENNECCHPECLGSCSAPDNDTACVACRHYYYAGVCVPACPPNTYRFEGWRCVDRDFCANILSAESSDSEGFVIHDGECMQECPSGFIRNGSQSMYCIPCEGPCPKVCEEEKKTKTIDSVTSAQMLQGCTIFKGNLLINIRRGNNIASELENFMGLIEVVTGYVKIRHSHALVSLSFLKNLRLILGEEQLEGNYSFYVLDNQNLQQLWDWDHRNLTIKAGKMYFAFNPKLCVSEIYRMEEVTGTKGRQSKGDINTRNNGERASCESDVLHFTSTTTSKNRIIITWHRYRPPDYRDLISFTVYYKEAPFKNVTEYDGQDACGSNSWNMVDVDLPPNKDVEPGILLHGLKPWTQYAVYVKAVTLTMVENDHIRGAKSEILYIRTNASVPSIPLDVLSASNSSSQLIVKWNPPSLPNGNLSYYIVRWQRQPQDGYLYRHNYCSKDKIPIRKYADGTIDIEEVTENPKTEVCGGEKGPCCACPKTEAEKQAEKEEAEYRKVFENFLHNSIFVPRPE
T5 sequence (P08069 741-1367 limits assumed): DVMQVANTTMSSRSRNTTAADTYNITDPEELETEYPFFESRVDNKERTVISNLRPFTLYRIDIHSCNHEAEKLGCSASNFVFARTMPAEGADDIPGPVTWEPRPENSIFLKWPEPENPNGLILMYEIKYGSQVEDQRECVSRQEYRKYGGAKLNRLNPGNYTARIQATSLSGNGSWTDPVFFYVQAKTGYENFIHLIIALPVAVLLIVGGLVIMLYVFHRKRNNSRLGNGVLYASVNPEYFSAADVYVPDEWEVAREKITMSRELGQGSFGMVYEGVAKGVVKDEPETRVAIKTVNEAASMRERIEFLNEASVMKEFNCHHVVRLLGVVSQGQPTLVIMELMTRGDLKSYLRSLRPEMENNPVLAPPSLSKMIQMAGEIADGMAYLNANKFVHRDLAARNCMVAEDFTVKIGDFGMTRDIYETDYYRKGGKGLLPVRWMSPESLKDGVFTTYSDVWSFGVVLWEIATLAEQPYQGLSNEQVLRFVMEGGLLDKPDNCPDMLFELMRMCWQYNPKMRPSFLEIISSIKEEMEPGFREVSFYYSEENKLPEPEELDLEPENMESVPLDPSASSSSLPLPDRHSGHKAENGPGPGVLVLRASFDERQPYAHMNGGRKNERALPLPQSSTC

[9] = target: T5, Insulin-like growth factor 1 receptor; experiment: Binding affinity to human IGF1R expressed in mouse IGF1R knockout MEF cells assessed as dissociation constant; assay type: cell-based
Insulin receptor [10] = target: T4, Insulin receptor; experiment: Inhibition of human InsR expressed in mouse IGF1R knockout MEF cells; assay type: cell-based
[11] = Inhibition of N-terminal GST-tagged human NUAK1 A195T mutant expressed in Escherichia coli DH5alpha incubated for 30 mins in presence of gamma-[32P]ATP by cerenkov counting analysis
Aurora kinase B = Aurora kinase B (Homo sapiens, UniProt Q96GD4); experiment: Inhibition of Aurora B (unknown origin)
Aurora kinase B, sequence (Q96GD4 whole entry): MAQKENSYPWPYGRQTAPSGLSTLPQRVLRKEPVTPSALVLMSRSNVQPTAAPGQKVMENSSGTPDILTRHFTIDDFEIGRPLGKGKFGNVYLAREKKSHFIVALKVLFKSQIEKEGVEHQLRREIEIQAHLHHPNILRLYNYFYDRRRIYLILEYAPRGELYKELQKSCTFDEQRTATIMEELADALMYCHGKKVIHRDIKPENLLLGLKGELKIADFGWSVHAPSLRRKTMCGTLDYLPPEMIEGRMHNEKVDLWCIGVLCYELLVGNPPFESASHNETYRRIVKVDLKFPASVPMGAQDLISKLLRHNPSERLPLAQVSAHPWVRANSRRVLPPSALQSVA

[12] = target: T2, NUAK family SNF1-like kinase 1; experiment: Inhibition of NUAK1 in HEK293 cells assessed as effect on MYPT1 phosphorylation at Ser445 incubated for 3 mins by immunoblotting analysis; assay type: cell-based
Aurora kinase C = target: T6, Aurora kinase C (Homo sapiens, UniProt Q9UQB9); experiment: Inhibition of Aurora C (unknown origin)
T6 sequence (Q9UQB9 whole entry): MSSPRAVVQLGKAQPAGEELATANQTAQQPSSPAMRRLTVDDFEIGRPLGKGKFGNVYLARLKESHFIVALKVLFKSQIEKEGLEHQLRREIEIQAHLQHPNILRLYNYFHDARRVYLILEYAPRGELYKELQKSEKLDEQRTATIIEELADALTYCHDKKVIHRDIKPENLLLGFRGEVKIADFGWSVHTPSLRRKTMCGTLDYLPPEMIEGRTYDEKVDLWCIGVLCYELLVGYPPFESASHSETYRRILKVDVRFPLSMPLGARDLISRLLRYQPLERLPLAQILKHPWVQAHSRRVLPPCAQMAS

[13] = target: Cyclin-dependent kinase 4 (Homo sapiens) (UniProt P11802); experiment: Inhibition of CDK4 (unknown origin)
Cyclin-dependent kinase 4 (Homo sapiens), sequence (P11802 whole entry): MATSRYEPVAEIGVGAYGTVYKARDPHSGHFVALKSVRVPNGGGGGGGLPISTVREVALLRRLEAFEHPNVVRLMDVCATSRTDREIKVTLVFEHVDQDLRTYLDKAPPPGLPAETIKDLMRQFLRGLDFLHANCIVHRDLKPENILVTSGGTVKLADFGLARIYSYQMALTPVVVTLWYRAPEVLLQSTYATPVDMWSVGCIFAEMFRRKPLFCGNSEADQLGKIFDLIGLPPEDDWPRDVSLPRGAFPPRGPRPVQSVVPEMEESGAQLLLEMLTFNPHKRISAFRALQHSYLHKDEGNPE

[14] = target: Proto-oncogene tyrosine-protein kinase receptor Ret (Homo sapiens, UniProt P07949); experiment: Inhibition of RET (unknown origin)
Proto-oncogene tyrosine-protein kinase receptor Ret, sequence (P07949 whole entry): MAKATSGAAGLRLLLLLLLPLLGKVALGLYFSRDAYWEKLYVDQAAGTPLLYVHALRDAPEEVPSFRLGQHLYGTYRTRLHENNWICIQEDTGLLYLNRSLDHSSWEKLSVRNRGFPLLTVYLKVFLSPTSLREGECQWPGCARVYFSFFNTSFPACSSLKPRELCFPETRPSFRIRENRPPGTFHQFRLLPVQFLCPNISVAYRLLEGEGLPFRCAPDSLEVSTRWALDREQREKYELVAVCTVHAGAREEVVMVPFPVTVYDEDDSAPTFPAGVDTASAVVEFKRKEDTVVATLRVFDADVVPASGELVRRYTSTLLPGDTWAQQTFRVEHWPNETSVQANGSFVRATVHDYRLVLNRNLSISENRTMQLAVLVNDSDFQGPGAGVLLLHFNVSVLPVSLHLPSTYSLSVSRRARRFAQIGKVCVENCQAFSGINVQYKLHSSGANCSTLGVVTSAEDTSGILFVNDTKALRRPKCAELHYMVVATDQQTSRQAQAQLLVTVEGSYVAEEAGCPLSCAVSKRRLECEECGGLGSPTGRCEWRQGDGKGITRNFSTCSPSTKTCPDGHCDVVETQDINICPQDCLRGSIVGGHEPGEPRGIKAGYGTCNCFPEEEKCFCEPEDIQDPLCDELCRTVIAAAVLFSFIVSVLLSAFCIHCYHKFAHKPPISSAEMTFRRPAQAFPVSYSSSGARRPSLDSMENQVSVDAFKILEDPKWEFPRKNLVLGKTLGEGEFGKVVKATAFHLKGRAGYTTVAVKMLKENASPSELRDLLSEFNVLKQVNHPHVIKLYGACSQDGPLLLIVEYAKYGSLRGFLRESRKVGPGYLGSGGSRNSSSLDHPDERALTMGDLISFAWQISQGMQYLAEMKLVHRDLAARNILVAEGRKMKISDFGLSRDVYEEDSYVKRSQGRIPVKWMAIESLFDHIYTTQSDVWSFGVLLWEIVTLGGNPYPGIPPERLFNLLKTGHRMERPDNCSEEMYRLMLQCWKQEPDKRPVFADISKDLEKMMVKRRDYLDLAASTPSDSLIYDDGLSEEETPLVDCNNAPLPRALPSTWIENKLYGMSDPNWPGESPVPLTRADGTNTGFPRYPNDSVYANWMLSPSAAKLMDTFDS

inhibition [1]: 6%
inhibition [2]: 3%
inhibition [3]: 35%
SMILES: Cc1cc(Nc2nc(NC(C)c3ccc(F)cc3)c(C#N)cc2F)n[nH]1 (stereo not drawn)

IC50 [4]: 34.9 nM
SMILES: Fc1ccc(Cn2cnc3cc(Cl)c(Nc4cc(C5CC5)[nH]n4)nc32)cc1

IC50 [5]: 126 nM
SMILES: CCCC(=O)Nc1cccc(Oc2nc(Nc3ccc(N4CCN(C)CC4)cc3OC)ncc2I)c1

IC50 [6]: 6 nM
SMILES: Cc1cc(Nc2ncc3c(n2)N(C)c2ccccc2C(=O)N3C)ccc1C(=O)N1CCN(C)CC1

Kd (Insulin receptor [7]): 12 nM
IC50 [8]: 1 nM
Kd [9]: 9 nM
IC50 [4]: 411 nM
IC50 (Insulin receptor [10]): 1 nM
SMILES: COCCN1CCN(CCn2ccc(Nc3ncc4c(n3)C(C)Cc3nn(C)c(-c5ccccc5)c3-4)n2)CC1 (stereo not drawn)

IC50 [5]: 2600 nM
SMILES: O=C(NCCCNc1nc(Nc2cccc(CN3CCOCC3)c2)ncc1C1CC1)C1CCC1

IC50 [6]: 67 nM
SMILES: CC(C)(C)NS(=O)(=O)c1cccc(Nc2nc(Nc3cnn(C4CCNCC4)c3)ncc2Cl)c1

IC50 [11]: 2000 nM
IC50 [6]: 15 nM
SMILES: Cc1ccc2c(c1)C(=O)N(C)c1cnc(Nc3ccc4c(c3)NC(=O)CC4)nc1N2C

IC50 [6]: 25 nM
SMILES: C=CC(=O)Nc1cccc(Oc2nc(Nc3ccc(N4CCN(C)CC4)cc3OC)ncc2Cl)c1

IC50 [4]: < 10 nM
SMILES: C[C@@H](O)[C@@H](C)Oc1nc(Nc2ccc([S@](=N)(=O)C3CC3)cc2)ncc1C(F)(F)F [RONICICLIB]

IC50 [4]: 64 nM
SMILES: COc1cccc(OCCCN)c1-c1cc(Nc2cnc(C#N)cn2)n[nH]1 [PREXASERTIB]

IC50 (Aurora kinase B): 54 nM
IC50 [12]: 10000 nM
IC50 (Aurora kinase C): 120 nM
SMILES: CN1C(=O)c2cc3ccccc3cc2N(C)c2nc(Nc3cnn(C4CCNCC4)c3)ncc21

IC50 [6]: 1.5 nM
SMILES: CCC(=O)Nc1cccc(Oc2nc(Nc3ccc(N4CCN(C)CC4)cc3OC)ncc2Cl)c1

IC50 [6]: 17 nM
SMILES: Cc1nc(Nc2cnn(C3CCNCC3)c2)nc2c1N(C)C(=O)c1ccccc1N2C

IC50 [6]: 7 nM
SMILES: Cc1ccc2c(c1)C(=O)N(C)c1cnc(Nc3cnn(C4CCNCC4)c3)nc1N2C

IC50 [4]: 5 nM
SMILES: O=C(NCCCNc1nc(Nc2cccc(NC(=O)N3CCCC3)c2)ncc1I)c1cccs1 [BX-795]

IC50 [13]: 3.9 nM
IC50 [14]: 9.2 nM
SMILES: CN1CCN(c2ccc(Nc3ncc4cc(C#N)c(=O)n(C5CCCC5)c4n3)cc2)CC1 [NARAZACICLIB]

IC50 [6]: 33 nM
SMILES: C=CC(=O)Nc1cccc(Oc2nc(Nc3ccc(N4CCN(C)CC4)cc3)nc3[nH]cnc23)c1
